In US11541028B2, “Peptide pharmaceuticals for treatment of NASH and other disorders” (Mederis Diabetes LLC, priority 2018, dated 2023) one finds EC50 data, which are given here for 6 compounds.

One assay addresses T1, human GLP-1 receptor (Homo sapiens, UniProt P43220).
T1 construct: host or cells: CHO cells
The assay is described as follows: DiscoveRx LeadHunter cellular assay, cAMP stimulation, GLP-1 receptor in CHO cells. Type of assay: cell-based. The conditions noted are these: human GLP-1 receptor in CHO cells (DiscoveRx); read-out: EC50 cAMP GLP-1 R.

A further assay addresses T2, human glucagon receptor (Homo sapiens, UniProt P47871).
T2 construct: host or cells: CHO cells
Put plainly: DiscoveRx LeadHunter cellular assay, cAMP stimulation, glucagon receptor in CHO cells. Type of assay: cell-based.

T1 sequence (P43220 24-463): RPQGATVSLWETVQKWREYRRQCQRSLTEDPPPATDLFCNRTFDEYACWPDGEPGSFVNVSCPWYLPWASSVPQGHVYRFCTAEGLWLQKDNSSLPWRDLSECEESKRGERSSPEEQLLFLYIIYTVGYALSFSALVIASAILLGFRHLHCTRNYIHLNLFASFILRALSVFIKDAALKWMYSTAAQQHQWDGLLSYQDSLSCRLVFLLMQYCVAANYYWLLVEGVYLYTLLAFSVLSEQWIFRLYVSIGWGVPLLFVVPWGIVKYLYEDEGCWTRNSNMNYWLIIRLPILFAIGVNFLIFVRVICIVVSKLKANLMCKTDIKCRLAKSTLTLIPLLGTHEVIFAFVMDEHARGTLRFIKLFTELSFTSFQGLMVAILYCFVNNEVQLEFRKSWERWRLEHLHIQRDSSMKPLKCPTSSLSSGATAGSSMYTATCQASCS
T2 sequence (P47871 26-477): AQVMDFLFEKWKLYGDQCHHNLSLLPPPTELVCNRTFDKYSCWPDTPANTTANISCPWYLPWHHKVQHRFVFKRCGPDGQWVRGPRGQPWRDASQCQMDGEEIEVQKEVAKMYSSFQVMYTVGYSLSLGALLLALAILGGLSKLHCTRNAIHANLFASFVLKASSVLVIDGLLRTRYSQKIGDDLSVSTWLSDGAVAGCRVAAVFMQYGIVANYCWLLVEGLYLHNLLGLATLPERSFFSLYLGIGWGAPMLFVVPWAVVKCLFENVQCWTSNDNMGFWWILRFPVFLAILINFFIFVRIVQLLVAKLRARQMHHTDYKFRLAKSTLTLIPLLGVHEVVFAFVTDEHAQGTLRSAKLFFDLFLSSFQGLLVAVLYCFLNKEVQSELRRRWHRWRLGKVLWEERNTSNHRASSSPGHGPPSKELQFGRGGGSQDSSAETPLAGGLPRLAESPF
Description for human GLP-1 receptor: (§1) A further series of cellular assays was carried out with standard cellular assays (DiscoveRx, LeadHunter assays) using readout of cAMP stimulation or arrestin activation. Compounds were weighed precisely in an amount of about 1 mg and shipped to DiscoveRx for dilution and assay.
Description for human glucagon receptor: as §1

As a reminder, the EC50 is the midpoint of the concentration-response curve. Consider `CCCCCCCCCCCCCCO[C@@H]1O[C@H](CO[C@H]2O[C@H](C(=O)N[C@@H](CCC(=O)NCCCC[C@H](NC(=O)[C@@H](NC(=O)[C@H](Cc3ccccc3)NC(=O)[C@H](CCC(=O)O)NC(=O)[C@@H]3CCCCNC(=O)CC[C@H](NC(=O)[C@H](CC(=O)O)NC(=O)[C@H](CC(C)C)NC(=O)[C@H](Cc4ccc(O)cc4)NC(=O)[C@H](CCCCN)NC(=O)[C@H](CO)NC(=O)[C@H](Cc4ccc(O)cc4)NC(=O)[C@H](CC(=O)O)NC(=O)[C@H](CO)NC(=O)[C@@H](NC(=O)[C@H](Cc4ccccc4)NC(=O)[C@@H](NC(=O)CNC(=O)[C@H](CCC(N)=O)NC(=O)C(C)(C)NC(=O)[C@@H](N)Cc4c[nH]cn4)[C@@H](C)O)[C@@H](C)O)C(=O)N[C@@H](CCC(N)=O)C(=O)N[C@@H](C)C(=O)N[C@@H](C)C(=O)N3)[C@@H](C)CC)C(=O)N[C@@H](Cc3c[nH]c4ccccc34)C(=O)N[C@@H](CC(C)C)C(=O)N[C@@H](CC(C)C)C(=O)N[C@@H](CCC(N)=O)C(=O)N[C@H](C(N)=O)[C@@H](C)O)C(=O)O)[C@H](O)[C@H](O)[C@H]2O)[C@@H](O)[C@H](O)[C@H]1O` [EU-A1607], for which the EC50 at human GLP-1 receptor was 0.022 nM; at human glucagon receptor it was 0.126 nM.

In the case of `CCCCCCCCCCCCO[C@@H]1O[C@H](CO[C@H]2O[C@H](C(=O)NCCCC[C@H](N)C(=O)NCCCC[C@H](NC(=O)[C@@H](NC(=O)[C@H](Cc3ccccc3)NC(=O)[C@H](CCC(=O)O)NC(=O)[C@@H]3CCCCNC(=O)CC[C@H](NC(=O)[C@H](CC(=O)O)NC(=O)[C@H](CC(C)C)NC(=O)[C@H](Cc4ccc(O)cc4)NC(=O)[C@H](CCCCN)NC(=O)[C@H](CO)NC(=O)[C@H](Cc4ccc(O)cc4)NC(=O)[C@H](CC(=O)O)NC(=O)[C@H](CO)NC(=O)[C@@H](NC(=O)[C@H](Cc4ccccc4)NC(=O)[C@@H](NC(=O)CNC(=O)[C@H](CCC(N)=O)NC(=O)C(C)(C)NC(=O)[C@@H](N)Cc4c[nH]cn4)[C@@H](C)O)[C@@H](C)O)C(=O)N[C@@H](CCC(N)=O)C(=O)N[C@@H](C)C(=O)N[C@@H](C)C(=O)N3)[C@@H](C)CC)C(=O)N[C@@H](Cc3c[nH]c4ccccc34)C(=O)N[C@@H](CC(C)C)C(=O)N[C@@H](CC(C)C)C(=O)N[C@@H](CCC(N)=O)C(=O)N[C@H](C(=O)O)[C@@H](C)O)[C@H](O)[C@H](O)[C@H]2O)[C@@H](O)[C@H](O)[C@H]1O` [EU-A1611], the 50% effective concentration (EC50) at human GLP-1 receptor is 0.015 nM; at human glucagon receptor, 0.16 nM.

On to `CCCCCCCCCCCCCCO[C@@H]1O[C@H](CO[C@H]2O[C@H](C(=O)NCCCC[C@H](N)C(=O)NCCCC[C@H](NC(=O)[C@@H](NC(=O)[C@H](Cc3ccccc3)NC(=O)[C@H](CCC(=O)O)NC(=O)[C@@H]3CCCCNC(=O)CC[C@H](NC(=O)[C@H](CC(=O)O)NC(=O)[C@H](CC(C)C)NC(=O)[C@H](Cc4ccc(O)cc4)NC(=O)[C@H](CCCCN)NC(=O)[C@H](CO)NC(=O)[C@H](Cc4ccc(O)cc4)NC(=O)[C@H](CC(=O)O)NC(=O)[C@H](CO)NC(=O)[C@@H](NC(=O)[C@H](Cc4ccccc4)NC(=O)[C@@H](NC(=O)CNC(=O)[C@H](CCC(N)=O)NC(=O)C(C)(C)NC(=O)[C@@H](N)Cc4c[nH]cn4)[C@@H](C)O)[C@@H](C)O)C(=O)N[C@@H](CCC(N)=O)C(=O)N[C@@H](C)C(=O)N[C@@H](C)C(=O)N3)[C@@H](C)CC)C(=O)N[C@@H](Cc3c[nH]c4ccccc34)C(=O)N[C@@H](CC(C)C)C(=O)N[C@@H](CC(C)C)C(=O)N[C@@H](CCC(N)=O)C(=O)N[C@H](C(=O)O)[C@@H](C)O)[C@H](O)[C@H](O)[C@H]2O)[C@@H](O)[C@H](O)[C@H]1O` [EU-A1612], for which the concentration for a half-maximal effect (EC50) on human GLP-1 receptor came to 0.011 nM; on human glucagon receptor, 0.059 nM.

With `CCCCCCCCCCCCO[C@@H]1O[C@H](CO[C@H]2O[C@H](C(=O)N[C@@H](CCC(=O)NCCCC[C@H](NC(=O)[C@@H](NC(=O)[C@H](Cc3ccccc3)NC(=O)[C@H](CCC(=O)O)NC(=O)[C@@H]3CCCCNC(=O)CC[C@H](NC(=O)[C@H](CC(=O)O)NC(=O)[C@H](CC(C)C)NC(=O)[C@H](Cc4ccc(O)cc4)NC(=O)[C@H](CCCCN)NC(=O)[C@H](CO)NC(=O)[C@H](Cc4ccc(O)cc4)NC(=O)[C@H](CC(=O)O)NC(=O)[C@H](CO)NC(=O)[C@@H](NC(=O)[C@H](Cc4ccccc4)NC(=O)[C@@H](NC(=O)CNC(=O)[C@H](CCC(N)=O)NC(=O)C(C)(C)NC(=O)[C@@H](N)Cc4c[nH]cn4)[C@@H](C)O)[C@@H](C)O)C(=O)N[C@@H](CCC(N)=O)C(=O)N[C@@H](C)C(=O)N[C@@H](C)C(=O)N3)[C@@H](C)CC)C(=O)N[C@@H](Cc3c[nH]c4ccccc34)C(=O)N[C@@H](CC(C)C)C(=O)N[C@@H](CC(C)C)C(=O)N[C@@H](CCC(N)=O)C(=O)N[C@H](C(=O)O)[C@@H](C)O)C(=O)O)[C@H](O)[C@H](O)[C@H]2O)[C@@H](O)[C@H](O)[C@H]1O` [EU-A1616], the EC50 stood at 0.079 nM at human GLP-1 receptor and 0.204 nM at human glucagon receptor.

Take `CCCCCCCCCCCCCCO[C@@H]1O[C@H](CO[C@H]2O[C@H](C(=O)N[C@@H](CCC(=O)NCCCC[C@H](NC(=O)[C@@H](NC(=O)[C@H](Cc3ccccc3)NC(=O)[C@H](CCC(=O)O)NC(=O)[C@@H]3CCCCNC(=O)CC[C@H](NC(=O)[C@H](CC(=O)O)NC(=O)[C@H](CC(C)C)NC(=O)[C@H](Cc4ccc(O)cc4)NC(=O)[C@H](CCCCN)NC(=O)[C@H](CO)NC(=O)[C@H](Cc4ccc(O)cc4)NC(=O)[C@H](CC(=O)O)NC(=O)[C@H](CO)NC(=O)[C@@H](NC(=O)[C@H](Cc4ccccc4)NC(=O)[C@@H](NC(=O)CNC(=O)[C@H](CCC(N)=O)NC(=O)C(C)(C)NC(=O)[C@@H](N)Cc4c[nH]cn4)[C@@H](C)O)[C@@H](C)O)C(=O)N[C@@H](CCC(N)=O)C(=O)N[C@@H](C)C(=O)N[C@@H](C)C(=O)N3)[C@@H](C)CC)C(=O)N[C@@H](Cc3c[nH]c4ccccc34)C(=O)N[C@@H](CC(C)C)C(=O)N[C@@H](CC(C)C)C(=O)N[C@@H](CCC(N)=O)C(=O)N[C@H](C(=O)O)[C@@H](C)O)C(=O)O)[C@H](O)[C@H](O)[C@H]2O)[C@@H](O)[C@H](O)[C@H]1O` [EU-A1617]: the EC50 on human GLP-1 receptor was 0.119 nM; on human glucagon receptor, 0.598 nM.

On to `CCCCCCCCCCCCO[C@@H]1O[C@H](CO[C@H]2O[C@H](C(=O)N[C@@H](CCC(=O)N[C@@H](CCC(=O)NCCCC[C@H](NC(=O)[C@@H](NC(=O)[C@H](Cc3ccccc3)NC(=O)[C@H](CCC(=O)O)NC(=O)[C@@H]3CCCCNC(=O)CC[C@H](NC(=O)[C@H](CC(=O)O)NC(=O)[C@H](CC(C)C)NC(=O)[C@H](Cc4ccc(O)cc4)NC(=O)[C@H](CCCCN)NC(=O)[C@H](CO)NC(=O)[C@H](Cc4ccc(O)cc4)NC(=O)[C@H](CC(=O)O)NC(=O)[C@H](CO)NC(=O)[C@@H](NC(=O)[C@H](Cc4ccccc4)NC(=O)[C@@H](NC(=O)CNC(=O)[C@H](CCC(N)=O)NC(=O)C(C)(C)NC(=O)[C@@H](N)Cc4c[nH]cn4)[C@@H](C)O)[C@@H](C)O)C(=O)N[C@@H](CCC(N)=O)C(=O)N[C@@H](C)C(=O)N[C@@H](C)C(=O)N3)[C@@H](C)CC)C(=O)N[C@@H](Cc3c[nH]c4ccccc34)C(=O)N[C@@H](CC(C)C)C(=O)N[C@@H](CC(C)C)C(=O)N[C@@H](CCC(N)=O)C(=O)N[C@H](C(=O)O)[C@@H](C)O)C(=O)O)C(=O)O)[C@H](O)[C@H](O)[C@H]2O)[C@@H](O)[C@H](O)[C@H]1O` [EU-A1620], for which the EC50 at human GLP-1 receptor came to 0.051 nM; on human glucagon receptor, 0.24 nM.
